The values below come from patent US9896441B2 (Lycera Corporation, priority 2014, dated 2018).

The structures appear in SMILES notation. pEC50: −log10 of the molar value.

One experiment addresses T1, Gal4-RORγ-LBD (Homo sapiens, UniProt P51449).
T1 construct: expressed in transfected cells
T1 sequence (P51449 269-508 limits assumed): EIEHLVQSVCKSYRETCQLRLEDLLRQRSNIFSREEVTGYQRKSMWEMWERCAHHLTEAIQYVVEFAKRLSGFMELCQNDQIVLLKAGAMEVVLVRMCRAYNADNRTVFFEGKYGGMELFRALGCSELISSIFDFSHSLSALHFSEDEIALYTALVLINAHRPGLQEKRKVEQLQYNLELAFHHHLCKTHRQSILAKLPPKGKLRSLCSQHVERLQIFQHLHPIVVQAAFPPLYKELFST
The experiment can be described thus: Gal4-RORγ Luciferase Reporter Assay in HEK-293T Cells. As to conditions: HEK-293 cells, luciferase reporter, in presence of ursolic acid; for Gal4-RORγ Assay Max Response: maximum response. It is filed as cell-based. A digest of the protocol: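 Max Response was taken as the upper plateau of a 4-parameter logistic fit of luciferase signal, normalized to 100 for wells without ursolic acid or compound. Transiently Gal4-RORγ-LBD/Gal4-luc transfected HEK-293 cells carrying […] ursolic acid were incubated with test compounds (0.2% DMSO) overnight at 37 °C and read with One-Glo.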
In general terms: In a reporter assay the amount or activity of a reporter protein is the signal.

The target in a further experiment is T2, RORγ-LBD (Homo sapiens, UniProt P51449).
T2 construct: made in house; host or cells: SF9 cells (baculovirus); used as diluted lysate
T2 sequence (P51449 269-508 limits assumed): T1 sequence (P51449 269-508 limits assumed)
The experiment can be described thus: RORγ-Ligand Binding Domain (LBD) TR-FRET Assay.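 On TR-FRET Assay Max Response: 665/615 nm signal ratio set to 100 without ursolic acid or test compound.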 In kind it is biochemical. As to conditions: RORγ-LBD TR-FRET assay; for TR-FRET Assay Max Response: maximum response. The method, boiled down:
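TR-FRET read-out using a biotin-tagged SRC1 coactivator LXXLL peptide (200 nM final), with the antagonist ursolic acid present at 2 μM final. Receptor is His-tagged LBD expressed in SF9 cells, ~3 nM final in pH 7.0 Tris/KCl/EDTA/DTT/BSA buffer; compounds in 1% DMSO final.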
Background: TR-FRET usually uses a lanthanide donor and a delayed reading to cut background.

For the molecule `C/C(=C\c1ccc2c(c1)N(S(=O)(=O)c1cccc(C(F)(F)F)c1)C[C@H](OC(C)(C)C(=O)O)C2)c1c(F)cccc1Cl` [Example 173F, (R,E)-2-((7-(2-(2-chloro-6-fluorophenyl)prop-1-en-1-yl)-1-((3-(trifluoromethyl)phenyl)-sulfonyl)-1,2,3,4-tetrahydroquinolin-3-yl)oxy)-2-methylpropanoic acid], at Gal4-RORγ-LBD, the pEC50 was above 6.30 and the “Gal4-RORγ Assay Max Response” value is “** (a value in the range of greater than 90 to 150)”. Moreover, at RORγ-LBD, the pEC50 is above 6.30 and the “TR-FRET Assay Max Response” value was “*** (a value in the range of greater than 150 to 200)”.

Regarding `COC(=O)CCC1CC(S(=O)(=O)c2ccc(F)c(OC)c2)c2cc(OCc3c(F)cccc3Cl)ccc2O1` (stereo not drawn) [Example 178, Methyl 3-(6-((2-chloro-6-fluorobenzyl)oxy)-4-((4-fluoro-3-methoxyphenyl)sulfonyl)chroman-2-yl)propanoate], on Gal4-RORγ-LBD, the pEC50 was 5.30 to 6.30 and the “Gal4-RORγ Assay Max Response” value is reported as “** (a value in the range of greater than 90 to 150)”. Further, at RORγ-LBD, the negative-log EC50 (pEC50) is above 6.30 and the “TR-FRET Assay Max Response” value is “** (a value in the range of greater than 90 to 150)”.

Regarding `COc1cc(S(=O)(=O)C2CC(CCC(=O)O)Oc3ccc(OCc4c(F)cccc4Cl)cc32)ccc1F` (stereo not drawn) [Example 179, 3-(6-((2-Chloro-6-fluorobenzyl)oxy)-4-((4-fluoro-3-methoxyphenyl)sulfonyl)chroman-2-yl)propanoic acid], on Gal4-RORγ-LBD, the pEC50 was 5.30 to 6.30 and the “Gal4-RORγ Assay Max Response” value is “*** (a value in the range of greater than 150 to 200)”. On RORγ-LBD, the pEC50 was above 6.30 and the “TR-FRET Assay Max Response” value was “** (a value in the range of greater than 90 to 150)”.

Take `C/C(=C\c1ccc2c(c1)C(S(=O)(=O)c1cccc(C(F)(F)F)c1)CC(CN)O2)c1c(F)cccc1Cl` (stereo not drawn) [Example 180, (E)-(6-(2-(2-Chloro-6-fluorophenyl)prop-1-en-1-yl)-4-((3-(trifluoromethyl)phenyl)sulfonyl)chroman-2-yl)methanamine]: on Gal4-RORγ-LBD, the pEC50 was 5.30 to 6.30 and the “Gal4-RORγ Assay Max Response” value is recorded as “* (a value in the range of 30 to 90)”. At RORγ-LBD, the negative-log EC50 (pEC50) was above 6.30 and the “TR-FRET Assay Max Response” value is recorded as “*** (a value in the range of greater than 150 to 200)”.

In the case of `CC(=O)NCC1CC(S(=O)(=O)c2cccc(C(F)(F)F)c2)c2cc(/C=C(\C)c3c(F)cccc3Cl)ccc2O1` (stereo not drawn) [Example 181, (E)-N-((6-(2-(2-Chloro-6-fluorophenyl)prop-1-en-1-yl)-4-((3-(trifluoromethyl)phenyl)sulfonyl)chroman-2-yl)methyl)acetamide], at Gal4-RORγ-LBD, the pEC50 is above 6.30 and the “Gal4-RORγ Assay Max Response” value is “** (a value in the range of greater than 90 to 150)”. Moreover, on RORγ-LBD, the pEC50 was above 6.30 and the “TR-FRET Assay Max Response” value is “** (a value in the range of greater than 90 to 150)”.

Take `C/C(=C\c1ccc2c(c1)C(S(=O)(=O)c1cccc(C(F)(F)F)c1)CC(CNC(=O)C(C)(C)O)O2)c1c(F)cccc1Cl` (stereo not drawn) [Example 182, (E)-N-((6-(2-(2-Chloro-6-fluorophenyl)prop-1-en-1-yl)-4-((3-(trifluoromethyl)phenyl)sulfonyl)chroman-2-yl)methyl)-2-hydroxy-2-methylpropanamide]: on Gal4-RORγ-LBD, the pEC50 was above 6.30 and the “Gal4-RORγ Assay Max Response” value was “** (a value in the range of greater than 90 to 150)”. Further, on RORγ-LBD, the pEC50 was above 6.30 and the “TR-FRET Assay Max Response” value is reported as “*** (a value in the range of greater than 150 to 200)”.

Consider `C/C(=C\c1ccc2c(c1)C(S(=O)(=O)c1cccc(C(F)(F)F)c1)CC(CNC(=O)C1CC1)O2)c1c(F)cccc1Cl` (stereo not drawn) [Example 183, (E)-N-((6-(2-(2-Chloro-6-fluorophenyl)prop-1-en-1-yl)-4-((3-(trifluoromethyl)phenyl)sulfonyl)chroman-2-yl)methyl)cyclopropanecarboxamide], for which, at Gal4-RORγ-LBD, the pEC50 was 5.30 to 6.30 and the “Gal4-RORγ Assay Max Response” value is on record as “** (a value in the range of greater than 90 to 150)”. Also, on RORγ-LBD, the pEC50 was above 6.30 and the “TR-FRET Assay Max Response” value was “*** (a value in the range of greater than 150 to 200)”.

Take `C/C(=C\c1ccc2c(c1)C(S(=O)(=O)c1cccc(C(F)(F)F)c1)CC(CNS(C)(=O)=O)O2)c1c(F)cccc1Cl` (stereo not drawn) [Example 184, (E)-N-((6-(2-(2-Chloro-6-fluorophenyl)prop-1-en-1-yl)-4-((3-(trifluoromethyl)phenyl)sulfonyl)chroman-2-yl)methyl)methanesulfonamide]: on Gal4-RORγ-LBD, the pEC50 was above 6.30 and the “Gal4-RORγ Assay Max Response” value is on record as “** (a value in the range of greater than 90 to 150)”. Moreover, on RORγ-LBD, the pEC50 is above 6.30 and the “TR-FRET Assay Max Response” value is on record as “*** (a value in the range of greater than 150 to 200)”.

Take `COC(=O)CCC1CC(S(=O)(=O)c2cccc(C(F)(F)F)c2)c2cc(OCc3c(F)cccc3Cl)ccc2O1` (stereo not drawn) [Example 186B, methyl 3-(6-((2-chloro-6-fluorobenzyl)oxy)-4-((3-(trifluoromethyl)phenyl)sulfonyl)chroman-2-yl)propanoate]: at Gal4-RORγ-LBD, the pEC50 was above 6.30 and the “Gal4-RORγ Assay Max Response” value is “** (a value in the range of greater than 90 to 150)”. In addition, on RORγ-LBD, the pEC50 is above 6.30 and the “TR-FRET Assay Max Response” value was “** (a value in the range of greater than 90 to 150)”.

As for `COc1cc(S(=O)(=O)C2CC(CC(C)(C)C(=O)O)Oc3ccc(OCc4c(F)cccc4Cl)cc32)ccc1F` (stereo not drawn) [Example 186C, 3-(6-((2-chloro-6-fluorobenzyl)oxy)-4-((4-fluoro-3-methoxyphenyl)sulfonyl)chroman-2-yl)-2,2-dimethylpropanoic acid], at Gal4-RORγ-LBD, the pEC50 is below 5.00 and the “Gal4-RORγ Assay Max Response” value is “** (a value in the range of greater than 90 to 150)”. Further, at RORγ-LBD, the pEC50 is above 6.30 and the “TR-FRET Assay Max Response” value is given as “*** (a value in the range of greater than 150 to 200)”.

In the case of `CC(C)(CC1CC(S(=O)(=O)c2cccc(C(F)(F)F)c2)c2cc(OCc3c(F)cccc3Cl)ccc2O1)C(=O)O` (stereo not drawn) [Example 186E, 3-(6-((2-chloro-6-fluorobenzyl)oxy)-4-((3-(trifluoromethyl)phenyl)-sulfonyl)chroman-2-yl)-2,2-dimethylpropanoic acid], at Gal4-RORγ-LBD, the pEC50 is 5.30 to 6.30 and the “Gal4-RORγ Assay Max Response” value was “** (a value in the range of greater than 90 to 150)”. Further, at RORγ-LBD, the pEC50 was above 6.30 and the “TR-FRET Assay Max Response” value was “** (a value in the range of greater than 90 to 150)”.

As for `COC(=O)CCC1CC(S(=O)(=O)c2ccc(F)c(OC)c2)c2cc(/C=C(\C)c3c(F)cccc3Cl)ccc2O1` (stereo not drawn) [Example 186F, methyl (E)-3-(6-(2-(2-chloro-6-fluorophenyl)prop-1-en-1-yl)-4-((4-fluoro-3-methoxyphenyl)sulfonyl)chroman-2-yl)propanoate], at Gal4-RORγ-LBD, the pEC50 was above 6.30 and the “Gal4-RORγ Assay Max Response” value is given as “* (a value in the range of 30 to 90)”. Also, at RORγ-LBD, the pEC50 is above 6.30 and the “TR-FRET Assay Max Response” value is “*** (a value in the range of greater than 150 to 200)”.

One may read the pEC50 as the EC50 on a negative log10 scale, so that one unit is a factor of ten.
